PMC10648927, “Examining the activity of cefepime-taniborbactam against Burkholderia cepacia complex and Burkholderia gladioli isolated from cystic fibrosis patients in the United States” (Antimicrobial Agents and Chemotherapy, 2023)
In brackets after ≈: the same amount, converted by molar mass.

Columns and labels:
Design in all cases: agar dilution MIC, growth inhibition of clinical Burkholderia isolates
B. vietnamiensis AU28891 = test system: T1, B. vietnamiensis AU28891; assay: microbe, parasite or virus in culture; settings: Burkholderia vietnamiensis, AU28891
T1 construct: AU28891
Summary of the method: (§1)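 MICs by agar dilution against Bcc and B. gladioli clinical isolates, interpreted with CLSI breakpoints where available; K. pneumoniae ATCC 700603 (SHV-18) and ATCC BAA-1705 (KPC) served as quality controls.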

B. multivorans AU11772 = test system: T2, B. multivorans AU11772; assay: microbe, parasite or virus in culture; settings: Burkholderia multivorans, AU11772
T2 construct: AU11772
Summary of the method: as §1

B. multivorans AU21596 = test system: T3, B. multivorans AU21596; assay: microbe, parasite or virus in culture; settings: Burkholderia multivorans, AU21596
T3 construct: AU21596
Summary of the method: as §1

B. gladioli AU29223 = test system: T4, B. gladioli AU29223; assay: organism not typed
T4 construct: AU29223
Summary of the method: as §1

B. arboris AU14372 = test system: T5, B. arboris AU14372; assay: organism not typed
T5 construct: AU14372
Summary of the method: as §1

B. stabilis AU10235 = test system: T6, B. stabilis AU10235; assay: microbe, parasite or virus in culture; settings: Burkholderia stabilis, AU10235
T6 construct: AU10235
Summary of the method: as §1

B. multivorans AU23668 = test system: T7, B. multivorans AU23668; assay: microbe, parasite or virus in culture; settings: Burkholderia multivorans, AU23668
T7 construct: AU23668
Summary of the method: as §1

B. multivorans AU22436 = test system: T8, B. multivorans AU22436; assay: microbe, parasite or virus in culture; settings: Burkholderia multivorans, AU22436
T8 construct: AU22436
Summary of the method: as §1

B. cenocepacia AU6550 = test system: T9, B. cenocepacia AU6550; assay: microbe, parasite or virus in culture; settings: Burkholderia cenocepacia, AU6550
T9 construct: AU6550
Summary of the method: as §1

B. cenocepacia AU20146 = test system: T10, B. cenocepacia AU20146; assay: microbe, parasite or virus in culture; settings: Burkholderia cenocepacia, AU20146
T10 construct: AU20146
Summary of the method: as §1

B. cenocepacia AU0133 = test system: T11, B. cenocepacia AU0133; assay: microbe, parasite or virus in culture; settings: Burkholderia cenocepacia, AU0133
T11 construct: AU0133
Summary of the method: as §1

B. gladioli AU1009 = test system: T12, B. gladioli AU1009; assay: organism not typed
T12 construct: AU1009
Summary of the method: as §1

B. multivorans AU23365 = test system: T13, B. multivorans AU23365; assay: microbe, parasite or virus in culture; settings: Burkholderia multivorans, AU23365
T13 construct: AU23365
Summary of the method: as §1

B. multivorans AU17534 = test system: T14, B. multivorans AU17534; assay: microbe, parasite or virus in culture; settings: Burkholderia multivorans, AU17534
T14 construct: AU17534
Summary of the method: as §1

B. dolosa AU9336 = test system: T15, B. dolosa AU9336; assay: microbe, parasite or virus in culture; settings: Burkholderia dolosa, AU9336
T15 construct: AU9336
Summary of the method: as §1

B. cepacia AU11420 = test system: T16, B. cepacia AU11420; assay: microbe, parasite or virus in culture; settings: Burkholderia cepacia, AU11420
T16 construct: AU11420
Summary of the method: as §1

Structure (SMILES)	MIC (B. vietnamiensis AU28891) [µg/mL]	MIC (B. multivorans AU11772) [µg/mL]	MIC (B. multivorans AU21596) [µg/mL]	MIC (B. gladioli AU29223) [µg/mL]	MIC (B. arboris AU14372) [µg/mL]	MIC (B. stabilis AU10235) [µg/mL]	MIC (B. multivorans AU23668) [µg/mL]	MIC (B. multivorans AU22436) [µg/mL]	MIC (B. cenocepacia AU6550) [µg/mL]	MIC (B. cenocepacia AU20146) [µg/mL]	MIC (B. cenocepacia AU0133) [µg/mL]	MIC (B. gladioli AU1009) [µg/mL]	MIC (B. multivorans AU23365) [µg/mL]	MIC (B. multivorans AU17534) [µg/mL]	MIC (B. dolosa AU9336) [µg/mL]	MIC (B. cepacia AU11420) [µg/mL]
CO/N=C(\C(=O)N[C@@H]1C(=O)N2C(C(=O)[O-])=C(C[N+]3(C)CCCC3)CS[C@H]12)c1csc(N)n1 [cefepime]	8 (≈ 16.6 µM)	> 32	> 32	16 (≈ 33.3 µM)	> 32	> 32	4 (≈ 8.32 µM)	8 (≈ 16.6 µM)	32 (≈ 66.6 µM)	16 (≈ 33.3 µM)	16 (≈ 33.3 µM)	16 (≈ 33.3 µM)	> 32	> 32	> 32	> 32
C[C@@H](O)[C@H]1C(=O)N2C(C(=O)O)=C(S[C@@H]3CN[C@H](C(=O)N(C)C)C3)[C@H](C)[C@H]12 [meropenem]	2 (≈ 5.22 µM)	16 (≈ 41.7 µM)	32 (≈ 83.4 µM)	1 (≈ 2.61 µM)	16 (≈ 41.7 µM)	16 (≈ 41.7 µM)	2 (≈ 5.22 µM)	8 (≈ 20.9 µM)	8 (≈ 20.9 µM)	4 (≈ 10.4 µM)	4 (≈ 10.4 µM)	1 (≈ 2.61 µM)	8 (≈ 20.9 µM)	16 (≈ 41.7 µM)	8 (≈ 20.9 µM)	8 (≈ 20.9 µM)
C[C@H]1COc2c(N3CCN(C)CC3)c(F)cc3c(=O)c(C(=O)O)cn1c23 [levofloxacin]	8 (≈ 22.1 µM)	8 (≈ 22.1 µM)	> 32	0.5 (≈ 1.38 µM)	8 (≈ 22.1 µM)	16 (≈ 44.3 µM)	2 (≈ 5.53 µM)	> 32	8 (≈ 22.1 µM)	2 (≈ 5.53 µM)	4 (≈ 11.1 µM)	0.5 (≈ 1.38 µM)	8 (≈ 22.1 µM)	–	32 (≈ 88.6 µM)	4 (≈ 11.1 µM)
